From US5948792A, “Fluorine-containing 1,4-disubstituted piperidine derivatives” (Banyu Pharmaceutical Co., Ltd., priority 1996, dated 1999)

What was measured:
Muscarinic M3 Receptor [1] = molecular target: T1, Muscarinic M3 Receptor (Rattus norvegicus, UniProt P08483); experiment: Bronchodilation in rats (p.o.), inhibition of acetylcholine-induced increase in airway resistance; type: in vivo; settings: po, 1 h, acetylcholine 50 μg/kg i.v. 60 minutes after test compound, read-out: Inhibition of Airway Contraction ED50 po
T1 construct: male rats of the Sprague-Dawley strain; from tissue; host or cells: airways of living male Sprague-Dawley rats (in vivo)
T1 sequence (P08483 whole entry): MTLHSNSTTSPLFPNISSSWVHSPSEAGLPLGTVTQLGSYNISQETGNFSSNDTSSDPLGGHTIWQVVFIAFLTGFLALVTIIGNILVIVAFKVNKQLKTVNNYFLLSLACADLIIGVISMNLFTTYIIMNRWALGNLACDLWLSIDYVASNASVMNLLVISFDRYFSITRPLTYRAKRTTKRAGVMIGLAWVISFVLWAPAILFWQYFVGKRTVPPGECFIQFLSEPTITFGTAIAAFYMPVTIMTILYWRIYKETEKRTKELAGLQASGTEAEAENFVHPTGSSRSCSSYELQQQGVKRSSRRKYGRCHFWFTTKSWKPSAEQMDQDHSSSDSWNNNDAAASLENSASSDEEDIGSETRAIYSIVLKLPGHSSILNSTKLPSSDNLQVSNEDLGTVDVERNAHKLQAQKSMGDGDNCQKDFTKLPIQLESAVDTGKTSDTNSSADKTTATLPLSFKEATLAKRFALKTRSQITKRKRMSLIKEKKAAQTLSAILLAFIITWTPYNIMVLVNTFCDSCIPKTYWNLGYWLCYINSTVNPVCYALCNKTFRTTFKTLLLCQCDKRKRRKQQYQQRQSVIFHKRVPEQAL
Protocol: (§1) Tests for Antagonism Against Muscarinic M3 Receptor (in vivo)
1-B) Tests for Bronchodilation in Rats (p.o.)
Eight- to eleven-weeks-old male rats of Sprague-Dawley strain weighing 380-420 g were orally administered with a test compound. The rats were treated in the identical manner as in the i.v. test, starting 30 minutes after the administration, and their airway resistance values were measured. The acetylcholine-(50 μg/kg, i.v.) induced airway resistance increase were measured 60 minutes after the administration of test compounds. In controls, isotonic sodium chloride solution was used in place of the test compounds and otherwise identical procedures were repeated, the ratio between the two airway resistance values whereby being set to be 100%.

Muscarinic M3 Receptor [2] = experiment: Bronchodilation in dogs (p.o.), methacholine provocation test; type: in vivo, dog; settings: beagle dogs, 1 mg/kg p.o., 4 hours after administration
Protocol: as §1
2) Tests for Bronchodilation in Dogs (p.o.)
Twelve- to twenty-four-months-old male beagle dogs (weighing 10-15 kg) were anesthetized with pentobarbital (30 mg/kg, i.v.) and intubated in their bronchus. Their airway sensitivity to inhaled methacholine were measured at least twice at two-weeks interval, and the dogs showing a reproducible methacholine reaction threshold values^1) ware selected. To those dogs whose methacholine reaction threshold value had been confirmed, the test compounds were orally administered (1 mg/kg). Four hours after the administration, the methacholine provocation test was conducted, and then the methacholine reaction threshold value^2) after administration of the test compound was obtained.
The bronchodilator activity of the test compound was determined following equation: [formula]
The methacholine provocation test was conducted using Astograph TCK-6100H Model (Chest). Methacholine chloride was used as bronchoconstritor, which was diluted with isotonic sodium chloride solution in 10-grade concentration levels starting from 40,000 μg/ml, as 20,000, 10,000, 5,000, 2,500, 1,250, 625, 312.5, 156 and 78 μg/ml. These methacholine aerosols were inhaled to the test animal each for 1 min, starting from the lowest concentration level, and respiration resistance was continuously recorded. The concentration level at which the respiration resistance reached twice the initial value was recorded as the methacholine threshold value.

airway M3 receptor = molecular target: T2, airway M3 receptor (Rattus norvegicus, UniProt P08483); experiment: Antagonism to the airway M3 receptor in an isolated rat trachea (in vitro); type: cell-based; settings: for Kb: isolated rat trachea, carbachol-induced contraction
T2 construct: the trachea was isolated; from tissue; host or cells: isolated trachea of male SD strain rat
T2 sequence (P08483 whole entry): as above
Protocol: Tests for Antagonism to Muscarinic Receptors (in vitro)
2) Tests for Antagonism to the Airway M3 Receptor in an Isolated Rat Trachea
These tests were performed according to a conventional method. A male SD strain rat (weighing 300-500 g) was killed by exsanguination, and the trachea was isolated. Annular segments (2 mm wide) were cut out from the trachea and cut transversely at the anterior cartilage part to make open ring preparation. A preparation was suspended in a Magnus tube filled with 5 ml of Krebs-Henseleit solution (gassed with 95% O2 -5% CO2 and kept at 32° C.) with an initial tension of 1.0 g and a resting tension of 0.6 g. The tension of the preparation was recorded isometrically. After being equilibrated for an hour, the preparation was made to contract twice by treatment with 10^-4 M carbachol, and the second contraction induced by carbachol was used as the reference contraction. After the preparation was washed with fresh solution to be restored to the base line, a test compound was administered thereto (or no treatment was given). Ten minutes later, carbachol (10^-8 to 10^-3 M) was cumulatively administered in three-fold increasing doses to obtain a dose-response curve. The dose-response curve was plotted by expressing responses as percentages based on the reference contraction of the preparation as 100%. The antagonistic potency (K^B value) of the test compound was determined from the degree of shift of the dose-response curve obtained by treatment with the test compound.

Muscarinic M2 receptor = molecular target: T3, Muscarinic M2 receptor (Homo sapiens, UniProt P08172); experiment: Inhibition of binding of [3H]-N-methylscopolamine to muscarinic M2 receptor; settings: CHO cell membranes expressing cloned human receptor; 0.2 nM [3H]-N-methylscopolamine, pH 7.4, 2 hours, 25° C; read-out: Ki M2 (inhibitory effects on binding to muscarinic M2 receptor)
T3 construct: purchased Receptor Biology, Inc; host or cells: CHO cells (membranes)
T3 sequence (P08172 1-466): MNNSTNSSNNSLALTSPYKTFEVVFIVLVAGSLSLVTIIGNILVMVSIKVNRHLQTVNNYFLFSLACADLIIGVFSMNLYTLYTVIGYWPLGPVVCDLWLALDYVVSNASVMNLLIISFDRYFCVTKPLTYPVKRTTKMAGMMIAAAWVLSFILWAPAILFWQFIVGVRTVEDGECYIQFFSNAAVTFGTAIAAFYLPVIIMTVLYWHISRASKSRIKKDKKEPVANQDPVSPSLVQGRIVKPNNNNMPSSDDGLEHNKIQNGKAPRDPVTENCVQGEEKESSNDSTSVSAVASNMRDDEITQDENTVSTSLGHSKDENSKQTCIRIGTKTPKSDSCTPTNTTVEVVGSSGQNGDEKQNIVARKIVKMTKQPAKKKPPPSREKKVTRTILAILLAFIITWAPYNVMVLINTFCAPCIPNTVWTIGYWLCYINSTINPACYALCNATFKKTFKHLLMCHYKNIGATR
Protocol: Tests on Inhibition of Binding to Muscarinic Receptors
These tests were performed according to a modification of the method of Hargreaves et al. (Br. J. Pharmacol. 107: 494-501, 1992). Membranes from CHO cells expressing cloned human m1-m5 (Receptor Biology, Inc.) were incubated with 0.2 nM [^3 H]-N-methylscopolamine and each a compound of the present invention to be tested in 0.5 ml of 50 mM Tris-HCl-10 mM MgCl2 -1 mM EDTA (pH 7.4) for 2 hours at 25° C. Free and membrane-bound [^3 H]-N-methylscopolamine were separated by filtration over glass filters (UniFilter-GF/C; Packard Instruments Co., Inc.) using cell harvester (Filtermate™ 196; Packard Instruments Co., Inc.). Then the filter was washed four times with 1 ml of ice-cold Tris-HCl (pH 7.4) and dried at 50° C. After adding a scintillator (Microscinti 0; Packard Instruments Co., Inc.), the radioactivity was counted by a liquid scintillation counter (TopCount™; Packard Instruments Co., Inc.). Non-specific binding was measured in the presence of 1 μM N-methylscopolamine.

Row | SMILES | ED50 (Muscarinic M3 Receptor [1]) | Methacholine Inhalation-inducing Test shift value (after 4 hrs.) (Muscarinic M3 Receptor [2]) | Kb (airway M3 receptor) | M2/M3 (ratio of KB) (airway M3 receptor; selectivity ratio of KB values, right atrium M2 / trachea M3) | Ki (Muscarinic M2 receptor)
1 | Cl.Cl.Nc1cccc(CN2CCC(NC(=O)[C@](O)(c3ccccc3)[C@@H]3CCC(F)(F)C3)CC2)n1 [Example 20, (2R)-N-[1-(6-aminopyridin-2-ylmethyl)piperidin-4-yl]-2-[(1R)-3,3-difluorocyclopentyl]-2-hydroxy-2-phenylacetamide dihydrochloride] | 0.37 mg/kg | > 69 | 0.0016 µM | 630 | 0.55 µM
2 | O=C(NC1CCN(Cc2ccsc2)CC1)[C@](O)(c1ccccc1)[C@@H]1CCC(F)(F)C1 [Example 11, (2R)-N-[1-(3-thienylmethyl)piperidin-4-yl]-2-[(1R)-3,3-difluorocyclopentyl]-2-hydroxy-2-phenylacetamide] | 0.22 mg/kg | 21 | 0.00095 µM |  | 0.46 µM
